# Several values for one entry are separate records, joined by “and”; a condition that tells them apart may be missing. Equal entries are not always repeated. Toxic doses and inconclusive results are not listed.
# Tested on: CD2F1 mice, L1210 leukemia ip, survival T/C
# Test: NCI In Vivo Anticancer Drug Screen. Data for tumor model L1210 Leukemia (intraperitoneal) in CD2F1 (CDF1) mice
# Details: higher = longer survival
# Procedure, shortened: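 Tumor-bearing mice (transplanted tumor) were split into treated and vehicle control groups, and the measured endpoint of each treated group was divided by that of its vehicle controls.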
# [1] = endpoint: mean survival time, dose: 100.0 mg/kg/injection, schedule: Q04DX003 (ip), vehicle: saline with Tween-80
smiles,measurement,setting,value
CC(=O)NCC1(c2ccccc2)CCN(CCCC(=O)c2ccc(F)cc2)CC1,T/C,"endpoint: mean survival time, dose: 25.0 mg/kg/injection, schedule: Q04DX003 (ip), vehicle: Klucel (hydroxypropylcellulose) (HPC)",95 % of control
same,T/C,"endpoint: mean survival time, dose: 50.0 mg/kg/injection, schedule: Q04DX003 (ip), vehicle: Klucel (hydroxypropylcellulose) (HPC)",100 % of control
same,T/C,"endpoint: mean survival time, dose: 100.0 mg/kg/injection, schedule: Q04DX003 (ip), vehicle: Klucel (hydroxypropylcellulose) (HPC)",95 % of control
Cc1c2ccccc2cc2c1ccc1cccc(F)c12,T/C,"endpoint: median survival time, dose: 12.5 mg/kg/injection, schedule: Q04DX003 (ip), vehicle: saline with Tween-80",100 % of control
same,T/C,"endpoint: median survival time, dose: 25.0 mg/kg/injection, schedule: Q04DX003 (ip), vehicle: saline with Tween-80",100 % of control
same,T/C,"endpoint: median survival time, dose: 50.0 mg/kg/injection, schedule: Q04DX003 (ip), vehicle: saline with Tween-80",100 % of control
COc1ccccc1-n1c(O)c(N=Nc2ccccc2)c(=O)n(-c2ccccc2OC)c1=S,T/C,"endpoint: mean survival time, dose: 100.0 mg/kg/injection, schedule: Q01DX001 (ip), vehicle: saline with Tween-80",105 % of control
same,T/C,"endpoint: mean survival time, dose: 200.0 mg/kg/injection, schedule: Q01DX001 (ip), vehicle: saline with Tween-80",102 % of control
Cc1ccc(C)c(C(C)NC2=NCCO2)c1 (centres undefined),T/C,"endpoint: mean survival time, dose: 12.5 mg/kg/injection, schedule: Q04DX003 (ip), vehicle: saline with Tween-80",94 % of control
same,T/C,"endpoint: mean survival time, dose: 25.0 mg/kg/injection, schedule: Q04DX003 (ip), vehicle: saline with Tween-80",93 % of control
same,T/C,"endpoint: mean survival time, dose: 50.0 mg/kg/injection, schedule: Q04DX003 (ip), vehicle: saline with Tween-80",86 % of control and 92 % of control
same,T/C,[1],91 % of control
O=C(CCCCC(=O)Nc1ccc(C2=NCCN2)cc1)Nc1ccc(C2=NCCN2)cc1,T/C,"endpoint: mean survival time, dose: 75.0 mg/kg/injection, schedule: Q01DX009 (ip), vehicle: saline",168 % of control
same,T/C,"endpoint: mean survival time, dose: 150.0 mg/kg/injection, schedule: Q01DX009 (ip), vehicle: saline",216 % of control
same,T/C,"endpoint: mean survival time, dose: 300.0 mg/kg/injection, schedule: Q01DX009 (ip), vehicle: saline",236 % of control
CCOCCC(=O)NCc1ccccc1,T/C,[1],100 % of control
same,T/C,"endpoint: mean survival time, dose: 200.0 mg/kg/injection, schedule: Q04DX003 (ip), vehicle: saline with Tween-80",98 % of control
same,T/C,"endpoint: mean survival time, dose: 400.0 mg/kg/injection, schedule: Q04DX003 (ip), vehicle: saline with Tween-80",102 % of control
COc1cc2c(cc1OC)C(NC=O)CCC2 (centres undefined),T/C,"endpoint: mean survival time, dose: 12.5 mg/kg/injection, schedule: Q01DX009 (ip), vehicle: water",102 % of control
same,T/C,"endpoint: mean survival time, dose: 25.0 mg/kg/injection, schedule: Q01DX009 (ip), vehicle: water",102 % of control
same,T/C,"endpoint: mean survival time, dose: 50.0 mg/kg/injection, schedule: Q01DX009 (ip), vehicle: water",102 % of control
same,T/C,"endpoint: mean survival time, dose: 100.0 mg/kg/injection, schedule: Q01DX009 (ip), vehicle: water",100 % of control
same,T/C,"endpoint: mean survival time, dose: 200.0 mg/kg/injection, schedule: Q01DX009 (ip), vehicle: water",104 % of control
C1CC1C(=NN=C(C1CC1)C1CC1)C1CC1,T/C,"endpoint: mean survival time, dose: 25.0 mg/kg/injection, schedule: Q01DX009 (ip), vehicle: saline with Tween-80",97 % of control
same,T/C,"endpoint: mean survival time, dose: 50.0 mg/kg/injection, schedule: Q01DX009 (ip), vehicle: saline with Tween-80",101 % of control
same,T/C,[1],86 % of control
S=C1SCCCS1,T/C,"endpoint: mean survival time, dose: 75.0 mg/kg/injection, schedule: Q04DX003 (ip), vehicle: Klucel (hydroxypropylcellulose) (HPC)",103 % of control
same,T/C,"endpoint: mean survival time, dose: 150.0 mg/kg/injection, schedule: Q04DX003 (ip), vehicle: Klucel (hydroxypropylcellulose) (HPC)",98 % of control
same,T/C,"endpoint: mean survival time, dose: 300.0 mg/kg/injection, schedule: Q04DX003 (ip), vehicle: Klucel (hydroxypropylcellulose) (HPC)",98 % of control
Nc1ncnc2c1ncn2C1OC(C[Se](=O)c2ccccc2)C(O)C1O (centres undefined),T/C,"endpoint: median survival time, dose: 12.5 mg/kg/injection, schedule: Q01DX005 (ip), vehicle: Klucel (hydroxypropylcellulose) (HPC)",102 % of control
same,T/C,"endpoint: median survival time, dose: 25.0 mg/kg/injection, schedule: Q01DX005 (ip), vehicle: Klucel (hydroxypropylcellulose) (HPC)",106 % of control
same,T/C,"endpoint: median survival time, dose: 50.0 mg/kg/injection, schedule: Q01DX005 (ip), vehicle: Klucel (hydroxypropylcellulose) (HPC)",103 % of control
same,T/C,"endpoint: median survival time, dose: 100.0 mg/kg/injection, schedule: Q01DX005 (ip), vehicle: Klucel (hydroxypropylcellulose) (HPC)",103 % of control
same,T/C,"endpoint: median survival time, dose: 200.0 mg/kg/injection, schedule: Q01DX005 (ip), vehicle: Klucel (hydroxypropylcellulose) (HPC)",104 % of control
C[N+](C)(C)CCS(=O)(=O)[O-],T/C,"endpoint: mean survival time, dose: 100.0 mg/kg/injection, schedule: Q04DX003 (ip), vehicle: saline",102 % of control
same,T/C,"endpoint: mean survival time, dose: 200.0 mg/kg/injection, schedule: Q04DX003 (ip), vehicle: saline",100 % of control
same,T/C,"endpoint: mean survival time, dose: 400.0 mg/kg/injection, schedule: Q04DX003 (ip), vehicle: saline",100 % of control
O=C(CC(SCCN1CCOCC1)c1ccccc1)c1ccc([N+](=O)[O-])cc1 (centres undefined),T/C,"endpoint: mean survival time, dose: 100.0 mg/kg/injection, schedule: Q01DX001 (ip), vehicle: Klucel (hydroxypropylcellulose) (HPC)",93 % of control
same,T/C,"endpoint: mean survival time, dose: 200.0 mg/kg/injection, schedule: Q01DX001 (ip), vehicle: Klucel (hydroxypropylcellulose) (HPC)",93 % of control

# From PubChem BioAssay AID256 (DTP/NCI, 2004)
